Broadly, the IC50 is the concentration that gives 50% inhibition.

One assay deals with IKKε (Homo sapiens (Human), UniProt Q14164). As to the kind of experiment: IKKε kinase assay (384-well flashplate assay). Particulars: 1 nM IKKε, 10 μM ATP, 30° C., 2 hours; read-out: IKKε enzyme assay IC50. The format is biochemical. The method, then:
Test for the Inhibition of IKKε
IKKε—Kinase Assay (IKKepsilon)
The kinase assay is performed as 384-well flashplate assay (for example for Topcount measurement).
1 nM IKKε, 800 nM biotinylated IκBα(19-42) peptide (Biotin-C6-C6-[…]) and 10 μM ATP (spiked with 0.3 μCi of ^33P-ATP/well) are incubated at 30° C. for 2 hours in a total volume of 50 μl (10 mM MOPS, 10 mM Mg acetate, 0.1 mM EGTA, 1 mM dithiothreitol, 0.02% of Brij35, 0.1% of BSA, 0.1% of BioStab, pH 7.5) with or without test compound. The reaction is stopped using 25 μl of 200 mM EDTA. After 30 min at room temperature, the liquid is removed, and each well is washed three times with 100 μl of 0.9% sodium chloride solution. Non-specific reaction is determined in the presence of 3 μM MSC2119074 (BX-795). The radioactivity is measured using a Topcount (PerkinElmer). The results (for example IC50 values) are calculated using program tools provided by the IT Department (for example AssayExplorer, Symyx).

Assay [1] deals with TANK binding kinase (TBK1) (Homo sapiens (Human), UniProt Q9UHD2). Kind of assay: TBK1 enzyme assay (384-well flashplate kinase assay). The format is biochemical. The settings on record: 0.6 nM TBK1, 10 μM ATP, 30° C., 120 min.
Protocol: Test for the Inhibition of TBK1
0.6 nM TANK binding kinase (TBK1), 800 nM biotinylated MELK-derived peptide (Biotin-Ah-Ah-[sequence]) and 10 μM ATP (spiked with 0.25 μCi of ^33P-ATP/well) are incubated at 30° C. for 120 min in a total volume of 50 μl (10 mM MOPS, 10 mM Mg acetate, 0.1 mM EGTA, 1 mM DTT, 0.02% of Brij35, 0.1% of BSA, pH 7.5) with or without test compound. The reaction is stopped with 25 μl of 200 mM EDTA. After 30 min at room temperature, the liquid is removed, and each well is washed three times with 100 μl of 0.9% sodium chloride solution. Non-specific reaction is measured in the presence of 100 nM staurosporine. The radioactivity is measured in a Topcount (PerkinElmer).
Assay [2] relates to TBK1 + IKKε (phospho-IRF3 @ Ser 386, MDA-MB-468 cells). Kind of assay: TBK1 + IKKε cell assay: dose response inhibition of phospho-IRF3 @ Ser 386 in MDA-MB-468 cells. It is filed as cell-based. The settings on record: Homo sapiens, poly(I:C) stimulation, nuclear phospho-IRF3, read-out: TBK1 + IKKε cell assay IC50.

The structures appear in SMILES notation.

Chain of TANK binding kinase (TBK1) (Q9UHD2 whole entry): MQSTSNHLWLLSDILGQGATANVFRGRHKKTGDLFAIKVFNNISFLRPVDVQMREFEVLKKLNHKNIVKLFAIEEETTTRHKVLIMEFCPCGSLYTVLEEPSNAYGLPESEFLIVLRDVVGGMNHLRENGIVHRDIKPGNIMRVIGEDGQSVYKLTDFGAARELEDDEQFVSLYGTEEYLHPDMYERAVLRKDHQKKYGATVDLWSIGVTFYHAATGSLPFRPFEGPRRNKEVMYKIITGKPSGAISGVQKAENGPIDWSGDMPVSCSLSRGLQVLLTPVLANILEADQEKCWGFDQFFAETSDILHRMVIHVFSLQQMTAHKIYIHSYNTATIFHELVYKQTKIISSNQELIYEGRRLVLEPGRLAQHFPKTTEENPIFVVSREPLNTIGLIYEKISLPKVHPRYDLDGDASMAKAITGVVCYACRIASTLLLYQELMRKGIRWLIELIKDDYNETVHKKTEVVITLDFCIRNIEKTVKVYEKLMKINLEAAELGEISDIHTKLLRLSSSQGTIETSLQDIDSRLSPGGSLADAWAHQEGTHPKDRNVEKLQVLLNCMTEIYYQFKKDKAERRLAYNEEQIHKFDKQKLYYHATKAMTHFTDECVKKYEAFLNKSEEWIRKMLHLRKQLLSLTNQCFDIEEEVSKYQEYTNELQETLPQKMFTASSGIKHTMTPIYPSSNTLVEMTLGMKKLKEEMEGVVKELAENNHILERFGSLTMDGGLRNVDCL
Chain of IKKε (Q14164 whole entry): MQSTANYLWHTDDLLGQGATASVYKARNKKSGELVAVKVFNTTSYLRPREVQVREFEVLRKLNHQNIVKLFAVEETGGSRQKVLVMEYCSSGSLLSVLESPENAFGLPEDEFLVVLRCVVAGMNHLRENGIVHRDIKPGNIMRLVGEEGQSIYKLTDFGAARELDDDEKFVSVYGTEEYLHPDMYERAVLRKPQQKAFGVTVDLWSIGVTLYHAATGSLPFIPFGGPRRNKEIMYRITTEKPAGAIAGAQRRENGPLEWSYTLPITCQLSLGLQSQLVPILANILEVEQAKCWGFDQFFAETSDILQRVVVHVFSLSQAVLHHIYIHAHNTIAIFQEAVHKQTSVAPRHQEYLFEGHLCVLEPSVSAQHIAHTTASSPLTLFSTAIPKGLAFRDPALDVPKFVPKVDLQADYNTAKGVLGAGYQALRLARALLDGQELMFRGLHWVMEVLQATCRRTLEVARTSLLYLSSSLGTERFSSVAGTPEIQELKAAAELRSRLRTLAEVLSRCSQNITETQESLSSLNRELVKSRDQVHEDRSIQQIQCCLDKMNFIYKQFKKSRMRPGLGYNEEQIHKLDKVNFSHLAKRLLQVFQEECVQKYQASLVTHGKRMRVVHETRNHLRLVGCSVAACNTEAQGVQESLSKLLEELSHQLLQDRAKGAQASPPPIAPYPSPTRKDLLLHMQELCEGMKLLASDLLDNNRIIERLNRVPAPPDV

On to `CC(C)(C)c1cc(Nc2cc(-c3ccc(OC4CCOCC4)c(C#N)c3)ccn2)n[nH]1` [Compound A10, 5-[2-(5-tert-Butyl-1H-pyrazol-3-ylamino)pyridin-4-yl]-2-(tetrahydropyran-4-yloxy)benzonitrile], for which the half-inhibitory concentration (IC50) was found to be 43 nM on IKKε, 21 nM in assay [1] and 1200 nM in assay [2].
Regarding `N#Cc1ccc(Nc2cc(-c3ccc(OC4CCOCC4)c(C#N)c3)ccn2)nc1` [Compound A11, 6-{4-[3-Cyano-4-(tetrahydropyran-4-yloxy)phenyl]pyridin-2-ylamino}nicotinonitrile], the half-inhibitory concentration (IC50) at IKKε is 240 nM; in assay [1], 250 nM; in assay [2], 5200 nM.
On to `N#Cc1cc(-c2ccnc(Nc3cnn(C4CCNCC4)c3)n2)ccc1OC1CCOCC1` [Compound A64, 5-[2-(1-piperidin-4-yl-1H-pyrazol-4-ylamino)pyrimidin-4-yl]-2-(tetrahydropyran-4-yloxy)-benzonitrile], for which the values for the concentration for half-maximal inhibition (IC50) (at IKKε; in assay [1]; in assay [2]) were 6 nM, 6 nM and 230 nM, respectively.
For `N#Cc1cc(-c2ccnc(Nc3cnn([C@H]4CC[C@@H](O)CC4)c3)n2)ccc1OC1CCOCC1` [Compound A73, 5-{2-[1-(4-hydroxycyclohexyl)-1H-pyrazol-4-ylamino]pyrimidin-4-yl}-2-(tetrahydropyran-4-yloxy)benzonitrile], the IC50 at IKKε is 10 nM; in assay [1], 8 nM; in assay [2] it was 270 nM.
`N#Cc1cc(-c2ccnc(Nc3cnc(C4CCNCC4)cn3)c2)ccc1OC1CCOCC1` [Compound A72, 5-[2-(5-piperidin-4-ylpyrazin-2-ylamino)pyridin-4-yl]-2-(tetrahydropyran-4-yloxy)benzonitrile]: the IC50 came out at 7 nM on IKKε, 10 nM in assay [1] and 840 nM in assay [2].
`N#Cc1cc(-c2ccnc(Nc3cnn(CC(F)F)c3)c2)ccc1OC1CCOCC1` [Compound A20, 5-{2-[1-(2,2-Difluoroethyl)-1H-pyrazol-4-ylamino]pyridin-4-yl}-2-(tetrahydropyran-4-yloxy)benzonitrile]: the IC50 came to 51 nM at IKKε, 55 nM in assay [1] and 4800 nM in assay [2].
Regarding `COCCn1cc(Nc2nccc(-c3ccc(OC4CCOCC4)c(C#N)c3)n2)cn1` [Compound A35, 5-{2-[1-(2-Methoxyethyl)-1H-pyrazol-4-ylamino]pyrimidin-4-yl}-2-(tetrahydropyran-4-yloxy)benzonitrile], the figures for the half-inhibitory concentration (IC50) (at IKKε; in assay [1]; in assay [2]) were 18 nM, 6 nM and 670 nM, respectively.
As to `Cn1ccc(Nc2nccc(-c3ccc(OC4CCOCC4)c(C#N)c3)n2)n1` [Compound A33, 5-[2-(1-Methyl-1H-pyrazol-3-ylamino)pyrimidin-4-yl]-2-(tetrahydropyran-4-yloxy)benzonitrile], the values for the IC50 (at IKKε; in assay [1]; in assay [2]) were 58 nM, 130 nM and 5000 nM, respectively.
The matching figures for `N#Cc1cc(-c2ccnc(Nc3cnn(CCN4CCCC4)c3)n2)ccc1OC1CCOCC1` [Compound A83, 5-{2-[1-(2-pyrrolidin-1-ylethyl)-1H-pyrazol-4-ylamino]pyrimidin-4-yl}-2-(tetrahydropyran-4-yloxy)benzonitrile]: 88 nM, 60 nM and 5300 nM.
With `N#Cc1cc(-c2ccnc(Nc3ccc(CN4CCOCC4)cn3)c2)ccc1OC1CCOCC1` [Compound A118, 5-[2-(5-morpholin-4-ylmethylpyridin-2-ylamino)pyridin-4-yl]-2-(tetrahydropyran-4-yloxy)benzonitrile], the half-inhibitory concentration (IC50) on IKKε amounted to 25 nM; in assay [1], 24 nM; in assay [2], 450 nM.
The matching figures for `N#Cc1cc(-c2ccnc(Nc3ccn(C4CCNCC4)n3)c2)ccc1OCC1CC1` [Compound A107, 2-cyclopropylmethoxy-5-[2-(1-piperidin-4-yl-1H-pyrazol-3-ylamino)pyridin-4-yl]benzonitrile]: 30 nM, 50 nM and 11000 nM.
With `N#Cc1cc(-c2ccnc(Nc3cnn(CCO)c3)c2)ccc1OC1CCOCC1` [Compound A79, 5-{2-[1-(2-hydroxyethyl)-1H-pyrazol-4-ylamino]pyridin-4-yl}-2-(tetrahydropyran-4-yloxy)benzonitrile], the IC50 at IKKε is 91 nM; in assay [1], 120 nM; in assay [2] it was 4900 nM.
As for `N#Cc1cc(-c2ccnc(Nc3cnn(C[C@H]4C[C@@H]4CO)c3)n2)ccc1OC1CCOCC1` [Compound A67, 5-{2-[1-((1S,2S)-2-hydroxymethylcyclopropylmethyl)-1H-pyrazol-4-ylamino]pyrimidin-4-yl}-2-(tetrahydropyran-4-yloxy)benzonitrile], the values for the IC50 (on IKKε; in assay [1]; in assay [2]) were 4 nM, 6 nM and 420 nM, respectively.
The matching figures for `N#Cc1cc(-c2ccnc(Nc3ncc(C4CCNCC4)cn3)c2)ccc1OC1CCOCC1` [Compound A66, 5-[2-(5-piperidin-4-ylpyrimidin-2-ylamino)pyridin-4-yl]-2-(tetrahydropyran-4-yloxy)benzonitrile]: 82 nM, 100 nM and 4900 nM.
Regarding `N#Cc1cc(-c2ccnc(Nc3ccc(CO)cn3)c2)ccc1OCC1CC1` [Compound A106, 2-cyclopropylmethoxy-5-[2-(5-hydroxymethylpyridin-2-ylamino)pyridin-4-yl]benzonitrile], the figures for the IC50 (at IKKε; in assay [1]; in assay [2]) were 46 nM, 41 nM and 4100 nM, respectively.
As to `N#Cc1cc(-c2ccnc(Nc3cnn([C@H]4CC[C@@H](O)CC4)c3)n2)ccc1OCC1CCC1` [Compound A97, 2-cyclobutylmethoxy-5-{2-[1-(4-hydroxycyclohexyl)-1H-pyrazol-4-ylamino]-pyrimidin-4-yl}benzonitrile], the 50% inhibitory concentration (IC50) on IKKε was 39 nM; in assay [1], 11 nM; in assay [2] it was 2100 nM.
For the compound `N#Cc1cc(-c2ccnc(Nc3ccc(-c4cn[nH]c4)cn3)c2)ccc1OC1CCOCC1` [Compound A9, 5-{2-[5-(1H-Pyrazol-4-yl)pyridin-2-ylamino]pyridin-4-yl}-2-(tetrahydropyran-4-yloxy)benzonitrile], the results for the IC50 (on IKKε; in assay [1]; in assay [2]) were 100 nM, 120 nM and 3000 nM, respectively.
For `CN1CCC(c2ccnc(Nc3cc(-c4ccc(OC5CCOCC5)c(C#N)c4)ccn3)c2)CC1` [Compound A78, 5-[2-(1′-methyl-1′,2′,3′,4′,5′,6′-hexahydro-[4,4′]bipyridinyl-2-ylamino)pyridin-4-yl]-2-(tetrahydropyran-4-yloxy)benzonitrile], the 50% inhibitory concentration (IC50) on IKKε worked out at 6 nM; in assay [1], 5 nM; in assay [2] it was 2100 nM.
The matching figures for `N#Cc1cc(-c2ccnc(Nc3cc(C4CCNCC4)ccn3)c2)ccc1OC1CCOCC1` [Compound A74, 5-[2-(1′,2′,3′,4′,5′,6′-hexahydro-[4,4′]bipyridinyl-2-ylamino)pyridin-4-yl]-2-(tetrahydropyran-4-yloxy)benzonitrile]: 1 nM, 2 nM and 1600 nM.
Turning to `N#Cc1cc(-c2ccnc(Nc3cnn(C[C@H]4C[C@@H]4CO)c3)n2)ccc1OCC1CCC1` [Compound A95, 2-cyclobutylmethoxy-5-{2-[1-((1S,2S)-2-hydroxymethylcyclopropylmethyl)-1H-pyrazol-4-ylamino]pyrimidin-4-yl}benzonitrile], the figures for the IC50 (at IKKε; in assay [1]; in assay [2]) were 8 nM, 10 nM and 810 nM, respectively.

The values are drawn from patent US8969335B2, “Benzonitrile derivatives as kinase inhibitors” (MERCK PATENT GmbH, priority 2011, dated 2015).
